Test results reported in patent publication US20210251963A1, “UREA DERIVATIVES FOR USE IN THE TREATMENT OF SUBJECTS WITH ELEVATED EXPRESSION AND/OR ACTIVITY OF SRPK1” (Scandion Oncology A/S, priority 2018, published 2021).

What was measured:
Test in all cases: Premier Screen kinase activity screening (33P ATP filter binding)
ABL = molecular target: T1, ABL (Homo sapiens, UniProt P00519); type: biochemical; conditions: 10 μM SCO-101, mean of assay duplicates, read-out: Kinase activity (percentage of DMSO control)
T1 construct: MRC in Dundee (screening service)
T1 sequence (P00519 whole entry, species assumed): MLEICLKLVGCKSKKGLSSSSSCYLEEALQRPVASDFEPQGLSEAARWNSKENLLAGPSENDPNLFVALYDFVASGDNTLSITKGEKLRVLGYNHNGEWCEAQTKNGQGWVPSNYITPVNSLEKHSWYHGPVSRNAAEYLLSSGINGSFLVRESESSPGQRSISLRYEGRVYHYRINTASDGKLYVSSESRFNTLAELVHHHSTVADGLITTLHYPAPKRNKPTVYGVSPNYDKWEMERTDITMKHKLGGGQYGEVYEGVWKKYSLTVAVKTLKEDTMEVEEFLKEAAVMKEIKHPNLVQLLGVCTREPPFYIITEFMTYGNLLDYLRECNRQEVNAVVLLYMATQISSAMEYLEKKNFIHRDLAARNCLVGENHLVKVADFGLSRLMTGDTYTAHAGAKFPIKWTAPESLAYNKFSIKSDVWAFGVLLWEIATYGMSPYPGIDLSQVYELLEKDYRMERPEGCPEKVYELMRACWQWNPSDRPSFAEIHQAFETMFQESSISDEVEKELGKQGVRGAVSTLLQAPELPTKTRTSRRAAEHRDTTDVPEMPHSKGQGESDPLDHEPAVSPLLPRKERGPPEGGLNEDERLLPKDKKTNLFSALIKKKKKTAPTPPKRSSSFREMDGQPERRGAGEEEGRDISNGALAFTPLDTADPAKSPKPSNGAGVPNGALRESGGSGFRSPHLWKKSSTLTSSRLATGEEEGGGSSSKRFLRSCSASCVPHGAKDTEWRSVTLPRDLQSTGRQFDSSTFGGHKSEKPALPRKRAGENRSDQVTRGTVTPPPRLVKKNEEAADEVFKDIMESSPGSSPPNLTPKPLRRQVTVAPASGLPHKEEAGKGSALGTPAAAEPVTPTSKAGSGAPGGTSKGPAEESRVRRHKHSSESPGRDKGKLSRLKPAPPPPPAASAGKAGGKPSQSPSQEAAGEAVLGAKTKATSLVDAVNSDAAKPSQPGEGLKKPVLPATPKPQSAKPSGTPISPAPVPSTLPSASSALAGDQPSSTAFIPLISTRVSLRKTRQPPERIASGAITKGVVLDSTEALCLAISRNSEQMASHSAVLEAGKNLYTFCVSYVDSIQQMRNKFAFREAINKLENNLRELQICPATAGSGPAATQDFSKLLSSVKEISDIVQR
Source text: (§1) The kinase activity screening was done at MRC in Dundee. The screen was a so-called “Premier Screen” with 140 kinases. More specific information can be found here: http://www.kinase-screen.mrc.ac.uk/services/premier-screen
(§2) The method is based on a radioactive filter binding assay using 33P ATP (Hastie, et al 2006. Nat Protoc. 2006; 1(2):968-71; Bain, et al 2007. Biochem J. 2007 Dec. 15; 408(3):297-315). This method is sensitive, accurate and provides a direct measure of kinase enzyme activity. A concentration of 10 μM SCO-101 was used.
(§3) In the table below, the data is portrayed as the mean percentage activity of assay duplicates and a standard deviation. These percentage activities were calculated in comparison to DMSO controls. 10 μM SCO-101 reduced the activity of SRPK1 to 6% of the DMSO control.

CAMK1 = molecular target: T2, CAMK1 (Homo sapiens, UniProt Q14012); type: biochemical; conditions: 10 μM SCO-101, mean of assay duplicates, read-out: Kinase activity (percentage of DMSO control)
T2 construct: purchased MRC in Dundee (Premier Screen service)
Source text: as §1, §2, §3

CDK9-Cyclin T1 = molecular target: T3, CDK9-Cyclin T1 (Homo sapiens, UniProt P50750); type: biochemical; conditions: 10 μM SCO-101, mean of assay duplicates, read-out: Kinase activity (percentage of DMSO control)
T3 construct: purchased MRC Dundee, Premier Screen (contract screening service)
Source text: as §1, §2, §3

DAPK1 = DAPK1 (Homo sapiens, UniProt P53355); type: biochemical; conditions: 10 μM SCO-101, mean of assay duplicates, read-out: Kinase activity (percentage of DMSO control)
Source text: as §1, §2, §3

DYRK1A = molecular target: T4, DYRK1A (Homo sapiens, UniProt Q13627); type: biochemical; conditions: 10 μM SCO-101, mean of assay duplicates, read-out: Kinase activity (percentage of DMSO control)
T4 construct: purchased MRC Dundee, Premier Screen (contract screening service)
Source text: as §1, §2, §3

DYRK2 = molecular target: T5, DYRK2 (Homo sapiens, UniProt Q92630); type: biochemical; conditions: 10 μM SCO-101, mean of assay duplicates, read-out: Kinase activity (percentage of DMSO control)
T5 construct: purchased MRC in Dundee (Premier Screen service)
T5 sequence (Q92630 whole entry, species assumed): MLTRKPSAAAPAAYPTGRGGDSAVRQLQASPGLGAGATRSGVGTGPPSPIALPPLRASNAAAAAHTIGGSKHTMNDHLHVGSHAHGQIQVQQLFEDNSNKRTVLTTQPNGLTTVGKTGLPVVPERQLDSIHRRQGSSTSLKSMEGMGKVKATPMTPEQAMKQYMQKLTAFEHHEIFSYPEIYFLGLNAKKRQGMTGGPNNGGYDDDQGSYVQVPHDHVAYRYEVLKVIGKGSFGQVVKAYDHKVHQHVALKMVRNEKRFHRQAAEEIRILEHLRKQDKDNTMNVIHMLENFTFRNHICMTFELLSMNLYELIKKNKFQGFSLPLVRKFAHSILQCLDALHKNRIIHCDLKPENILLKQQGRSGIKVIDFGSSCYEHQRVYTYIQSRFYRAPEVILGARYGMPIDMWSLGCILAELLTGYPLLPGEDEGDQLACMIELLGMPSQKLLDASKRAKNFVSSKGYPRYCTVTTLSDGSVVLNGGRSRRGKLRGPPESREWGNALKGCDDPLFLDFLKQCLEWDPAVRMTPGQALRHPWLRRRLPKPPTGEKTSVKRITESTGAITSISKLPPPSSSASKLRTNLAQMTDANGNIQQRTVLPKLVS
Source text: as §1, §2, §3

EIF2AK3 = molecular target: T6, EIF2AK3 (Homo sapiens, UniProt Q9NZJ5); type: biochemical; conditions: 10 μM SCO-101, mean of assay duplicates, read-out: Kinase activity (percentage of DMSO control)
T6 construct: MRC Dundee (screening service)
Source text: as §1, §2, §3

ERK5 = molecular target: T7, ERK5 (Homo sapiens, UniProt Q13164); type: biochemical; conditions: 10 μM SCO-101, mean of assay duplicates, read-out: Kinase activity (percentage of DMSO control)
T7 construct: MRC in Dundee (screening service)
Source text: as §1, §2, §3

GSK3b = molecular target: T8, GSK3b (Homo sapiens, UniProt P49841); type: biochemical; conditions: 10 μM SCO-101, mean of assay duplicates, read-out: Kinase activity (percentage of DMSO control)
T8 construct: MRC Dundee (screening service)
Source text: as §1, §2, §3

HIPK3 = HIPK3 (Homo sapiens, UniProt Q9H422); type: biochemical; conditions: 10 μM SCO-101, mean of assay duplicates, read-out: Kinase activity (percentage of DMSO control)
Source text: as §1, §2, §3

IR = molecular target: T9, IR (Homo sapiens, UniProt P06213); type: biochemical; conditions: 10 μM SCO-101, mean of assay duplicates, read-out: Kinase activity (percentage of DMSO control)
T9 construct: MRC Dundee (screening service)
Source text: as §1, §2, §3

IRAK4 = IRAK4 (Homo sapiens, UniProt Q9NWZ3); type: biochemical; conditions: 10 μM SCO-101, mean of assay duplicates, read-out: Kinase activity (percentage of DMSO control)
Source text: as §1, §2, §3

LKB1 = molecular target: T10, LKB1 (Homo sapiens, UniProt Q15831); type: biochemical; conditions: 10 μM SCO-101, mean of assay duplicates, read-out: Kinase activity (percentage of DMSO control)
T10 construct: MRC Dundee (screening service)
Source text: as §1, §2, §3

Lck = molecular target: T11, Lck (Homo sapiens, UniProt P06239); type: biochemical; conditions: 10 μM SCO-101, mean of assay duplicates, read-out: Kinase activity (percentage of DMSO control)
T11 construct: purchased MRC Dundee, Premier Screen (contract screening service)
T11 sequence (P06239 whole entry, species assumed): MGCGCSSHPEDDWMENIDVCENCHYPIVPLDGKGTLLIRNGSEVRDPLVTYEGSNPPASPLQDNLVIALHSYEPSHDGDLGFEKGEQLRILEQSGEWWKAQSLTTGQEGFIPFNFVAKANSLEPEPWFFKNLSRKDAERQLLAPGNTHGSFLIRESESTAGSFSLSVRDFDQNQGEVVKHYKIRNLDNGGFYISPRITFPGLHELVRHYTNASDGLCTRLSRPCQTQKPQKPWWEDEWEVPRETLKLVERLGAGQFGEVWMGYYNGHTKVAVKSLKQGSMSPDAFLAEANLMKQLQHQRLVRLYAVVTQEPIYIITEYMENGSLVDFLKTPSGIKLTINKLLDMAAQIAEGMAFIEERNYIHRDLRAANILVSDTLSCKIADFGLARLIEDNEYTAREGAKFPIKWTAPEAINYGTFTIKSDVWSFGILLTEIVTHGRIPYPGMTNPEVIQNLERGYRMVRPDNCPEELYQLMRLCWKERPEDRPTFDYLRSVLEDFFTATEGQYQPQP
Source text: as §1, §2, §3

MAP4K3 = MAP4K3 (Homo sapiens, UniProt Q8IVH8); type: biochemical; conditions: 10 μM SCO-101, mean of assay duplicates, read-out: Kinase activity (percentage of DMSO control)
Source text: as §1, §2, §3

MAPKAP-K3 = molecular target: T12, MAPKAP-K3 (Homo sapiens, UniProt Q16644); type: biochemical; conditions: 10 μM SCO-101, mean of assay duplicates, read-out: Kinase activity (percentage of DMSO control)
T12 construct: MRC in Dundee (screening service)
Source text: as §1, §2, §3

MELK = molecular target: T13, MELK (Homo sapiens, UniProt Q14680); type: biochemical; conditions: 10 μM SCO-101, mean of assay duplicates, read-out: Kinase activity (percentage of DMSO control)
T13 construct: MRC Dundee (screening service)
Source text: as §1, §2, §3

MKK6 = molecular target: T14, MKK6 (Homo sapiens, UniProt P52564); type: biochemical; conditions: 10 μM SCO-101, mean of assay duplicates, read-out: Kinase activity (percentage of DMSO control)
T14 construct: purchased MRC Dundee, Premier Screen (contract screening service)
T14 sequence (P52564 whole entry, species assumed): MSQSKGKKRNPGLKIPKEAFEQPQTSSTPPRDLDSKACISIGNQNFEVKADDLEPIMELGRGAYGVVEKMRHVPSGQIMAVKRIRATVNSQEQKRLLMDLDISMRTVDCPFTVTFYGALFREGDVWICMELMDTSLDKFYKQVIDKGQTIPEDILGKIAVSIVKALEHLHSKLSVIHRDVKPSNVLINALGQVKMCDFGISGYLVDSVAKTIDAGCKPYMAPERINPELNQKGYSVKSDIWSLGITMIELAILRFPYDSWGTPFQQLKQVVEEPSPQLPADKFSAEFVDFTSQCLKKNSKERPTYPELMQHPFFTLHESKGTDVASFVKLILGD
Source text: as §1, §2, §3

MSK1 = molecular target: T15, MSK1 (Homo sapiens, UniProt O75582); type: biochemical; conditions: 10 μM SCO-101, mean of assay duplicates, read-out: Kinase activity (percentage of DMSO control)
T15 construct: MRC Dundee (screening service)
T15 sequence (O75582 whole entry, species assumed): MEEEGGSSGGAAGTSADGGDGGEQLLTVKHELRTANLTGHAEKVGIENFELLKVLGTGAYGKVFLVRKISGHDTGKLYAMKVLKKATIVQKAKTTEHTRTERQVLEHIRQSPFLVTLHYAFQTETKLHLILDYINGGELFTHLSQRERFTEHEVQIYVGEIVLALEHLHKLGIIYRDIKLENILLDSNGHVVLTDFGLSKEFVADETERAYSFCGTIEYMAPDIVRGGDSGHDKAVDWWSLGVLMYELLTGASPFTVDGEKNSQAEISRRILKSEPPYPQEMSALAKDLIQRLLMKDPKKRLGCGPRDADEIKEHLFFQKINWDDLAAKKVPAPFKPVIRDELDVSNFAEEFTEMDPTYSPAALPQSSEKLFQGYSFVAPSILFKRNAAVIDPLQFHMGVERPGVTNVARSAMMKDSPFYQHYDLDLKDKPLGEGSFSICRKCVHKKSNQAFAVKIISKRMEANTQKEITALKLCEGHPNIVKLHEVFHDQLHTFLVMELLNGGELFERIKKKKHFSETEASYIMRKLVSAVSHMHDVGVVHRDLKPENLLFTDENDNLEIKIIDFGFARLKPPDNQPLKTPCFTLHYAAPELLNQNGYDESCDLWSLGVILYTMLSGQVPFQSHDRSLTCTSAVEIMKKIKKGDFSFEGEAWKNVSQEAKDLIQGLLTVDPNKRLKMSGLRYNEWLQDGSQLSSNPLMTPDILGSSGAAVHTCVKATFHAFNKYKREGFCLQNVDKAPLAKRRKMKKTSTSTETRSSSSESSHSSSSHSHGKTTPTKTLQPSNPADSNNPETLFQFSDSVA
Source text: as §1, §2, §3

PIM1 = molecular target: T16, PIM1 (Homo sapiens, UniProt P11309); type: biochemical; conditions: 10 μM SCO-101, mean of assay duplicates, read-out: Kinase activity (percentage of DMSO control)
T16 construct: purchased MRC in Dundee (Premier Screen service)
Source text: as §1, §2, §3

PKBa = molecular target: T17, PKBa (Homo sapiens, UniProt P31749); type: biochemical; conditions: 10 μM SCO-101, mean of assay duplicates, read-out: Kinase activity (percentage of DMSO control)
T17 construct: purchased MRC in Dundee (Premier Screen service)
Source text: as §1, §2, §3

PKCa = PKCa (Homo sapiens, UniProt P17252); type: biochemical; conditions: 10 μM SCO-101, mean of assay duplicates, read-out: Kinase activity (percentage of DMSO control)
Source text: as §1, §2, §3

PRAK = molecular target: T18, PRAK (Homo sapiens, UniProt Q8IW41); type: biochemical; conditions: 10 μM SCO-101, mean of assay duplicates, read-out: Kinase activity (percentage of DMSO control)
T18 construct: purchased MRC in Dundee (Premier Screen service)
Source text: as §1, §2, §3

RIPK2 = RIPK2 (Homo sapiens, UniProt O43353); type: biochemical; conditions: 10 μM SCO-101, mean of assay duplicates, read-out: Kinase activity (percentage of DMSO control)
Source text: as §1, §2, §3

RSK1 = molecular target: T19, RSK1 (Homo sapiens, UniProt Q15418); type: biochemical; conditions: 10 μM SCO-101, mean of assay duplicates, read-out: Kinase activity (percentage of DMSO control)
T19 construct: MRC Dundee (screening service)
T19 sequence (Q15418 whole entry, species assumed): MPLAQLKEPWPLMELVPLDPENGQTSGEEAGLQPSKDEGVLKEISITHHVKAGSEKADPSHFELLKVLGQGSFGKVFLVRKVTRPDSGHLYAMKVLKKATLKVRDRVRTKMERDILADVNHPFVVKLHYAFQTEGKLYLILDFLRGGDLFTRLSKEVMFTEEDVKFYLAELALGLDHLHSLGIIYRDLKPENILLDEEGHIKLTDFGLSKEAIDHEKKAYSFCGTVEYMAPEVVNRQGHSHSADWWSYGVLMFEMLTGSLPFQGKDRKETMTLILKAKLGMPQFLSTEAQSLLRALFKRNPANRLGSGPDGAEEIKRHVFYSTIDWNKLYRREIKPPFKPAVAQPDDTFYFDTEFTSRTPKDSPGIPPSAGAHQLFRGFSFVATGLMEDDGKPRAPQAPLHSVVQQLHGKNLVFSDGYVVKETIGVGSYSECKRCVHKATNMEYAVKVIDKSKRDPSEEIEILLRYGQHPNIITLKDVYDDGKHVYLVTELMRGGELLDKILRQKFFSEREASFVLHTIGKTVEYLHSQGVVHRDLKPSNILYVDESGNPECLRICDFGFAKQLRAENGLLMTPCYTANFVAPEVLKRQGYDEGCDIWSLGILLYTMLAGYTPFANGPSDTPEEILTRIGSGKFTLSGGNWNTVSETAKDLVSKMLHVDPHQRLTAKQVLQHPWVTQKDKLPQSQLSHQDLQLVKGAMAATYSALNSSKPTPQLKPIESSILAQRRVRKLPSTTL
Source text: as §1, §2, §3

RSK2 = molecular target: T20, RSK2 (Homo sapiens, UniProt P51812); type: biochemical; conditions: 10 μM SCO-101, mean of assay duplicates, read-out: Kinase activity (percentage of DMSO control)
T20 construct: purchased MRC in Dundee (Premier Screen service)
Source text: as §1, §2, §3

S6K1 = molecular target: T21, S6K1 (Homo sapiens, UniProt P23443); type: biochemical; conditions: 10 μM SCO-101, mean of assay duplicates, read-out: Kinase activity (percentage of DMSO control)
T21 construct: MRC in Dundee (screening service)
Source text: as §1, §2, §3

SYK = molecular target: T22, SYK (Homo sapiens, UniProt P43405); type: biochemical; conditions: 10 μM SCO-101, mean of assay duplicates, read-out: Kinase activity (percentage of DMSO control)
T22 construct: purchased MRC in Dundee (Premier Screen service)
Source text: as §1, §2, §3

Src = molecular target: T23, Src (Homo sapiens, UniProt P12931); type: biochemical; conditions: 10 μM SCO-101, mean of assay duplicates, read-out: Kinase activity (percentage of DMSO control)
T23 construct: purchased MRC Dundee, Premier Screen (contract screening service)
Source text: as §1, §2, §3

TAK1 = molecular target: T24, TAK1 (Homo sapiens, UniProt O43318); type: biochemical; conditions: 10 μM SCO-101, mean of assay duplicates, read-out: Kinase activity (percentage of DMSO control)
T24 construct: purchased MRC Dundee, Premier Screen (contract screening service)
Source text: as §1, §2, §3

TBK1 = molecular target: T25, TBK1 (Homo sapiens, UniProt Q9UHD2); type: biochemical; conditions: 10 μM SCO-101, mean of assay duplicates, read-out: Kinase activity (percentage of DMSO control)
T25 construct: purchased MRC in Dundee (Premier Screen service)
Source text: as §1, §2, §3

TLK1 = TLK1 (Homo sapiens, UniProt Q9UKI8); type: biochemical; conditions: 10 μM SCO-101, mean of assay duplicates, read-out: Kinase activity (percentage of DMSO control)
Chain of TLK1 (Q9UKI8 whole entry, species assumed): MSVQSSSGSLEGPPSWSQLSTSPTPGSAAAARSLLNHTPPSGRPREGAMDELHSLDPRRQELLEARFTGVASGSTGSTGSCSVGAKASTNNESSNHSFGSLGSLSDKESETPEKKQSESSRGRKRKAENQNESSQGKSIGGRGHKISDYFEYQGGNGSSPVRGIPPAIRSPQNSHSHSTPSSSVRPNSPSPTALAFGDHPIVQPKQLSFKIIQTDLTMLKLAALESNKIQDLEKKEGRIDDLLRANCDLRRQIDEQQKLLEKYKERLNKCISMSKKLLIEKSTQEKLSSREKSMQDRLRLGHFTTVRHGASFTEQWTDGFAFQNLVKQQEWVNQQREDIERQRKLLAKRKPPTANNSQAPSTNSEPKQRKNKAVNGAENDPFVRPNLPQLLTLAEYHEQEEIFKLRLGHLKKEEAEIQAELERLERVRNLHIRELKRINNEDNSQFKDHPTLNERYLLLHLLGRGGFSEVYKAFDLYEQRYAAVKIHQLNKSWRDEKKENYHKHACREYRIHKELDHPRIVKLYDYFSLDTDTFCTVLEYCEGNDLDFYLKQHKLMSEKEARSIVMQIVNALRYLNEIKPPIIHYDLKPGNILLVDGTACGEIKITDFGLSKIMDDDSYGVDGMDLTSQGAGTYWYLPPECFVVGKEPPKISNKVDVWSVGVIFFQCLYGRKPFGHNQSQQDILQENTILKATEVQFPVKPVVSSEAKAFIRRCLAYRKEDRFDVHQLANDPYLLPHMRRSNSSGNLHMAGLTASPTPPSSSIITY
Source text: as §1, §2, §3

TTBK2 = molecular target: T26, TTBK2 (Homo sapiens, UniProt Q6IQ55); type: biochemical; conditions: 10 μM SCO-101, mean of assay duplicates, read-out: Kinase activity (percentage of DMSO control)
T26 construct: purchased MRC Dundee, Premier Screen (contract screening service)
Source text: as §1, §2, §3

VEG-FR = molecular target: T27, VEG-FR (Homo sapiens, UniProt P17948); type: biochemical; conditions: 10 μM SCO-101, mean of assay duplicates, read-out: Kinase activity (percentage of DMSO control)
T27 construct: purchased MRC in Dundee (Premier Screen service)
Source text: as §1, §2, §3

YES1 = molecular target: T28, YES1 (Homo sapiens, UniProt P07947); type: biochemical; conditions: 10 μM SCO-101, mean of assay duplicates, read-out: Kinase activity (percentage of DMSO control)
T28 construct: MRC Dundee (screening service)
Source text: as §1, §2, §3

AMPK (hum) = type: biochemical, human; conditions: 10 μM SCO-101, mean of assay duplicates
Source text: as §1, §2, §3

O=C(Nc1cc(C(F)(F)F)cc(C(F)(F)F)c1)Nc1ccc(Br)cc1-c1nnn[nH]1 [SCO-101]
remaining activity at 10 µM (ABL): 85% | remaining activity at 10 µM (CAMK1): 57% | remaining activity at 10 µM (CDK9-Cyclin T1): 104% | remaining activity at 10 µM (DAPK1): 112% | remaining activity at 10 µM (DYRK1A): 112% | remaining activity at 10 µM (DYRK2): 78% | remaining activity at 10 µM (EIF2AK3): 103% | remaining activity at 10 µM (ERK5): 90% | remaining activity at 10 µM (GSK3b): 99% | remaining activity at 10 µM (HIPK3): 121% | remaining activity at 10 µM (IR): 98% | remaining activity at 10 µM (IRAK4): 112% | remaining activity at 10 µM (LKB1): 96% | remaining activity at 10 µM (Lck): 103% | remaining activity at 10 µM (MAP4K3): 113% | remaining activity at 10 µM (MAPKAP-K3): 85% | remaining activity at 10 µM (MELK): 95% | remaining activity at 10 µM (MKK6): 108% | remaining activity at 10 µM (MSK1): 101% | remaining activity at 10 µM (PIM1): 61% | remaining activity at 10 µM (PKBa): 126% | remaining activity at 10 µM (PKCa): 116% | remaining activity at 10 µM (PRAK): 69% | remaining activity at 10 µM (RIPK2): 121% | remaining activity at 10 µM (RSK1): 100% | remaining activity at 10 µM (RSK2): 64% | remaining activity at 10 µM (S6K1): 92% | remaining activity at 10 µM (SYK): 62% | remaining activity at 10 µM (Src): 105% | remaining activity at 10 µM (TAK1): 107% | remaining activity at 10 µM (TBK1): 126% | remaining activity at 10 µM (TLK1): 122% | remaining activity at 10 µM (TTBK2): 109% | remaining activity at 10 µM (VEG-FR): 66% | remaining activity at 10 µM (YES1): 99% | Kinase activity (percentage of DMSO control) (AMPK (hum)): 97 percentage of DMSO control
